Data taken from patent US8741899B2, “(4-chloro-2-fluoro-N-(2-fluorophenyl)-5-[(8aR)-hexahydropyrrolo-[1,2-a]pyrazin-2(1H)-ylcarbonyl]-benzenesulfonamide, and pharmaceutically acceptable salts thereof” (AbbVie Inc., priority 2009, dated 2014).

molecular target: T1, Human Cav3.2 Channels (Homo sapiens, UniProt O95180); test: Electrophysiologic (whole-cell patch-clamp) assessment of calcium channel activity in HEK293 cells stably expressing hCav3.2; type: cell-based; conditions: −77 mV, geometric mean, read-out: Human Cav3.2 −77 mV IC50 (μM) GeoMean
T1 construct: expressed in transfected cells
Protocol: (i) In Vitro Methods—Electrophysiologic Assessment of Calcium Channel Activity:
Patch-clamp recordings were performed using HEK293 cells stably expressing hCav3.2. Cells were plated in T175 flasks and grown at 37° C. and under 5% CO2 to approximately 50% confluency. On the day of the experiment, cells were harvested with Detachin™ cell detachment solution (Genlantis, San Diego, Calif.) and maintained in serum-free culture medium supplemented with 25 mM HEPES up to several hours prior to experiment. Whole-cell patch-clamp recordings were obtained using extracellular saline consisting of (mM): 87.5 CsCl, 40 TEA-Cl, 5 CaCl2, 1 MgCl2, 10 HEPES, 10 glucose. The pH was adjusted to 7.2 with CsOH and the osmolarity was adjusted to approximately 310 mOsm with sucrose. Intracellular solution consisted of (mM): 112 CsCl, 27 CsF, 2 NaCl, 8.2 EGTA, 10 HEPES. Prior to an experiment 4 mM Mg2ATP was added and the pH was adjusted to 7.2 with CsOH with an osmolarity of approximately 290 mOsm. A two-pulse voltage protocol was utilized to assess compound inhibition. First, cells were held with an 8 s pre-pulse at −100 mV prior to a 160 ms test pulse to −30 mV. This was followed by an 8 s pre-pulse at approximately −75 mV prior to a […]. Increasing concentrations of antagonist were applied to individual cells in a multi-addition format with 5 minutes in each test concentration. For each cell, responses were normalized to dimethyl sulfoxide vehicle control to generate concentration-response curves.

T1 sequence (O95180 whole entry): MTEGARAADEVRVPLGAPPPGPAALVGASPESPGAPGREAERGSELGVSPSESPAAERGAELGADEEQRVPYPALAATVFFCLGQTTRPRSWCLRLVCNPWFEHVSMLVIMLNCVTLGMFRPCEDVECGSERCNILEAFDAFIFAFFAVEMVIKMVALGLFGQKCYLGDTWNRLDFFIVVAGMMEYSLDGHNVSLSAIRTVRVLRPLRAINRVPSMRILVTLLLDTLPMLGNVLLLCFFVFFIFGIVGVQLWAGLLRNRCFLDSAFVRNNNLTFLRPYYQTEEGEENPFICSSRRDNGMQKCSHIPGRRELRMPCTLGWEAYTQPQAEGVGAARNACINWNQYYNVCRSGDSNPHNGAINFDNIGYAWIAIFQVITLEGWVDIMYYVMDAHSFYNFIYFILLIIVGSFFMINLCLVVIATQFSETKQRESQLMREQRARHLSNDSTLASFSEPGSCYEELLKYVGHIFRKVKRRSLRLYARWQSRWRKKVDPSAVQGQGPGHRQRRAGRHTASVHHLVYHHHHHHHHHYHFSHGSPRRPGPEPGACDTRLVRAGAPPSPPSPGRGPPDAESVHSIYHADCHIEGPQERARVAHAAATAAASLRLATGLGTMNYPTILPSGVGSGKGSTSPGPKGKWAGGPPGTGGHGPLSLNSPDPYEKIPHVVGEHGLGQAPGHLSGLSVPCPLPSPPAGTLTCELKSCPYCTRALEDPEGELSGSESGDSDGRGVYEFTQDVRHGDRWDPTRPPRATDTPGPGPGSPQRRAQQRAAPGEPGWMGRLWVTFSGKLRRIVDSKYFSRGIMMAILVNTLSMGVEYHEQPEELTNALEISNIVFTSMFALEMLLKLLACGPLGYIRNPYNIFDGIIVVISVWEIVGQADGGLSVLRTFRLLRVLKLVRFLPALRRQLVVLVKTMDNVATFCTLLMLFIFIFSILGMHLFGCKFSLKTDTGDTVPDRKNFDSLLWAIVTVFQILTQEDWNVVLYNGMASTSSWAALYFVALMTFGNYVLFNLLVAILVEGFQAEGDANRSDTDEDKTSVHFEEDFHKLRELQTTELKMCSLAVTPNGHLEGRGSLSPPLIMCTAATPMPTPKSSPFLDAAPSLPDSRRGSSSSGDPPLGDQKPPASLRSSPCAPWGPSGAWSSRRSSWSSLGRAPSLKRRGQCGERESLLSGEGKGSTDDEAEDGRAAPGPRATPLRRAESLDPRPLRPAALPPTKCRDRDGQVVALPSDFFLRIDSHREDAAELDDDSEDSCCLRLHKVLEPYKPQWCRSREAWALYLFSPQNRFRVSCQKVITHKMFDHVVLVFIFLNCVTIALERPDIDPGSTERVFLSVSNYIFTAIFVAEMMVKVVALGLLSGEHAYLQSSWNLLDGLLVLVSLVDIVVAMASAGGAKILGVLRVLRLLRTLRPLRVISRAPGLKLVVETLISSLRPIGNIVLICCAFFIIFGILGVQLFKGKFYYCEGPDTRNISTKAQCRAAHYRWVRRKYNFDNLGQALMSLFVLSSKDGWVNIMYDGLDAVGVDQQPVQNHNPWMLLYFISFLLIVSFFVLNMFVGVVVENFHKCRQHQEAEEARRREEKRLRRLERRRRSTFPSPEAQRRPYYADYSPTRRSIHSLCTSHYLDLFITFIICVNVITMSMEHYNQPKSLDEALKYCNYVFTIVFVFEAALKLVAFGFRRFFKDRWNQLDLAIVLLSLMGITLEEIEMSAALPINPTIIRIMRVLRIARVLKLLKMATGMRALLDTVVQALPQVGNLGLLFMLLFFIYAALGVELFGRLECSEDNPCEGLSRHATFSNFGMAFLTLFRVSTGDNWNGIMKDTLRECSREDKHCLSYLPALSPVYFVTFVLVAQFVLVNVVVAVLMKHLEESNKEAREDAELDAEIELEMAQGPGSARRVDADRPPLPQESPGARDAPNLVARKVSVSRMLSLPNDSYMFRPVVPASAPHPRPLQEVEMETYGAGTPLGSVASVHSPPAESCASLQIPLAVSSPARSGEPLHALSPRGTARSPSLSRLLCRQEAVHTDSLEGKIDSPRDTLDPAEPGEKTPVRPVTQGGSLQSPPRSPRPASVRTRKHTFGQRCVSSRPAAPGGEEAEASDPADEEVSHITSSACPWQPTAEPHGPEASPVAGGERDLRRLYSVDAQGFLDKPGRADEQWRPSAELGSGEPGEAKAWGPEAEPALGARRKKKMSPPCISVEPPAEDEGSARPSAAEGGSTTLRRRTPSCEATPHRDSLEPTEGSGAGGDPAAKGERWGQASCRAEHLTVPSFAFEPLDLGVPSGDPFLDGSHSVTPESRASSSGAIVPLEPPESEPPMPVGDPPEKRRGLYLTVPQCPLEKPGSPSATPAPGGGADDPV

First: O=C(c1cccc(S(=O)(=O)Nc2ccc(C(F)(F)F)cc2)c1)N1CCN2CCC[C@@H]2C1 [Example 1, 3-[(8aR)-hexahydropyrrolo[1,2-a]pyrazin-2(1H)-ylcarbonyl]-N-[4-(trifluoromethyl)phenyl]benzenesulfonamide]
Second: O=C(c1cccc(S(=O)(=O)Nc2ccc(C(F)(F)F)cc2)c1)N1CCN2CCC[C@H]2C1 [Example 8, 3-[(8aS)-hexahydropyrrolo[1,2-a]pyrazin-2(1H)-ylcarbonyl]-N-[4-(trifluoromethyl)phenyl]benzenesulfonamide]
The IC50 of the first is higher: > 10 µM for the first, 2.1 µM for the second. The second is the more potent here.

`O=C(c1cccc(S(=O)(=O)Nc2c(F)cccc2F)c1)N1CCN2CCC[C@H]2C1` [Example 4, N-(2,6-difluorophenyl)-3-[(8aS)-hexahydropyrrolo[1,2-a]pyrazin-2(1H)-ylcarbonyl]benzenesulfonamide] and `O=C(c1cccc(S(=O)(=O)Nc2cccc(F)c2F)c1)N1CCN2CCC[C@H]2C1` [Example 11, N-(2,3-difluorophenyl)-3-[(8aS)-hexahydropyrrolo[1,2-a]pyrazin-2(1H)-ylcarbonyl]benzenesulfonamide] are within 1.5-fold of each other in IC50: 7.7 µM for the first, 6.6 µM for the second.

Compared with `O=C(c1cccc(S(=O)(=O)Nc2ccc(F)cc2)c1)N1CCN2CCC[C@H]2C1` [Example 5, N-(4-fluorophenyl)-3-[(8aS)-hexahydropyrrolo[1,2-a]pyrazin-2(1H)-ylcarbonyl]benzenesulfonamide], `O=C(c1cccc(S(=O)(=O)Nc2cccc(F)c2)c1)N1CCN2CCC[C@@H]2C1` [Example 7, N-(3-fluorophenyl)-3-[(8aR)-hexahydropyrrolo[1,2-a]pyrazin-2(1H)-ylcarbonyl]benzenesulfonamide] is 3.6-fold higher in IC50: 1.8 µM for the first, 6.5 µM for the second. The first is the more potent here.

Going from `O=C(c1cccc(S(=O)(=O)Nc2cccc(C(F)(F)F)c2)c1)N1CCN2CCC[C@H]2C1` [Example 6, 3-[(8aS)-hexahydropyrrolo[1,2-a]pyrazin-2(1H)-ylcarbonyl]-N-[3-(trifluoromethyl)phenyl]benzenesulfonamide] to `O=C(c1cccc(S(=O)(=O)Nc2cccc(Cl)c2)c1)N1CCN2CCC[C@H]2C1` [Example 21, N-(3-chlorophenyl)-3-[(8aS)-hexahydropyrrolo[1,2-a]pyrazin-2(1H)-ylcarbonyl]benzenesulfonamide], the IC50 rises from 1.9 µM to 5.9 µM (3.1-fold).

Compared with `O=C(c1cccc(S(=O)(=O)Nc2ccccc2Cl)c1)N1CCN2CCC[C@@H]2C1` [Example 9, N-(2-chlorophenyl)-3-[(8aR)-hexahydropyrrolo[1,2-a]pyrazin-2(1H)-ylcarbonyl]benzenesulfonamide], `O=C(c1cccc(S(=O)(=O)Nc2ccccc2Cl)c1)N1CCN2CCC[C@H]2C1` [Example 10, N-(2-chlorophenyl)-3-[(8aS)-hexahydropyrrolo[1,2-a]pyrazin-2(1H)-ylcarbonyl]benzenesulfonamide] is 4.9-fold lower in IC50: 7.3 µM for the first, 1.5 µM for the second. The second is the more potent here.

First: O=C(c1cccc(S(=O)(=O)Nc2cc(F)ccc2F)c1)N1CCN2CCC[C@H]2C1 [Example 12, N-(2,5-difluorophenyl)-3-[(8aS)-hexahydropyrrolo[1,2-a]pyrazin-2(1H)-ylcarbonyl]benzenesulfonamide]
Second: O=C(c1cccc(S(=O)(=O)Nc2cc(F)ccc2F)c1)N1CCN2CCC[C@@H]2C1 [Example 15, N-(2,5-difluorophenyl)-3-[(8aR)-hexahydropyrrolo[1,2-a]pyrazin-2(1H)-ylcarbonyl]benzenesulfonamide]
The IC50 of the first is lower: 4.7 µM for the first, > 10 µM for the second.

Going from `O=C(c1cccc(S(=O)(=O)Nc2cccc(F)c2F)c1)N1CCN2CCC[C@@H]2C1` [Example 14, N-(2,3-difluorophenyl)-3-[(8aR)-hexahydropyrrolo[1,2-a]pyrazin-2(1H)-ylcarbonyl]benzenesulfonamide] to `O=C(c1cccc(S(=O)(=O)Nc2ccccc2F)c1)N1CCN2CCC[C@H]2C1` [Example 17, N-(2-fluorophenyl)-3-[(8aS)-hexahydropyrrolo[1,2-a]pyrazin-2(1H)-ylcarbonyl]benzenesulfonamide], the IC50 rises from 3.7 µM to > 10 µM.

Compared with `O=C(c1cccc(S(=O)(=O)Nc2ccc(F)cc2F)c1)N1CCN2CCC[C@H]2C1` [Example 16, N-(2,4-difluorophenyl)-3-[(8aS)-hexahydropyrrolo[1,2-a]pyrazin-2(1H)-ylcarbonyl]benzenesulfonamide], `O=C(c1cccc(S(=O)(=O)Nc2ccc(F)cc2F)c1)N1CCN2CCC[C@@H]2C1` [Example 18, N-(2,4-difluorophenyl)-3-[(8aR)-hexahydropyrrolo[1,2-a]pyrazin-2(1H)-ylcarbonyl]benzenesulfonamide] is 1.6-fold higher in IC50: 6 µM for the first, 9.3 µM for the second.

First: O=C(c1cccc(S(=O)(=O)Nc2ccccc2C(F)(F)F)c1)N1CCN2CCC[C@H]2C1 [Example 19, 3-[(8aS)-hexahydropyrrolo[1,2-a]pyrazin-2(1H)-ylcarbonyl]-N-[2-(trifluoromethyl)phenyl]benzenesulfonamide]
Second: O=C(c1cccc(S(=O)(=O)Nc2ccccc2C(F)(F)F)c1)N1CCN2CCC[C@@H]2C1 [Example 27, 3-[(8aR)-hexahydropyrrolo[1,2-a]pyrazin-2(1H)-ylcarbonyl]-N-[2-(trifluoromethyl)phenyl]benzenesulfonamide]
The IC50 of the first is lower: 2.4 µM for the first, > 10 µM for the second. The first is the more potent here.

Going from `O=C(c1cccc(S(=O)(=O)N2CCN(C(c3ccc(F)cc3)c3ccc(F)cc3)CC2)c1)N1CCN2CCC[C@@H]2C1` [Example 22, (8aR)-2-[3-({4-[bis(4-fluorophenyl)methyl]piperazin-1-yl}sulfonyl)benzoyl]octahydropyrrolo[1,2-a]pyrazine] to `O=C(c1cccc(S(=O)(=O)N2CCN(C(c3ccc(F)cc3)c3ccc(F)cc3)CC2)c1)N1CCN2CCC[C@H]2C1` [Example 23, (8aS)-2-[3-({4-[bis(4-fluorophenyl)methyl]piperazin-1-yl}sulfonyl)benzoyl]octahydropyrrolo[1,2-a]pyrazine], the IC50 rises from 1.4 µM to 2.5 µM (1.8-fold). The first is the more potent here.

First: O=C(c1cccc(S(=O)(=O)N2CCN(C(c3ccccc3)c3ccccc3)CC2)c1)N1CCN2CCC[C@@H]2C1 [Example 24, (8aR)-2-{3-[(4-benzhydrylpiperazin-1-yl)sulfonyl]benzoyl}octahydropyrrolo[1,2-a]pyrazine]
Second: O=C(c1cccc(S(=O)(=O)N2CCN(C(c3ccccc3)c3ccccc3)CC2)c1)N1CCN2CCC[C@H]2C1 [Example 28, (8aS)-2-{3-[(4-benzhydrylpiperazin-1-yl)sulfonyl]benzoyl}octahydropyrrolo[1,2-a]pyrazine]
The IC50 of the first is 1.9-fold lower: 1 µM for the first, 1.9 µM for the second.

Compared with `O=C(c1cccc(S(=O)(=O)Nc2cccc(Cl)c2)c1)N1CCN2CCC[C@@H]2C1` [Example 25, N-(3-chlorophenyl)-3-[(8aR)-hexahydropyrrolo[1,2-a]pyrazin-2(1H)-ylcarbonyl]benzenesulfonamide], `O=C(c1cccc(S(=O)(=O)NCC(c2ccccc2)c2ccccc2)c1)N1CCN2CCC[C@@H]2C1` [Example 26, N-(2,2-diphenylethyl)-3-[(8aR)-hexahydropyrrolo[1,2-a]pyrazin-2(1H)-ylcarbonyl]benzenesulfonamide] is 5.9-fold lower in IC50: 8.9 µM for the first, 1.5 µM for the second. The second is the more potent here.

`O=C(c1cccc(S(=O)(=O)NCCC(c2ccccc2)c2ccccc2)c1)N1CCN2CCC[C@@H]2C1` [Example 29, N-(3,3-diphenylpropyl)-3-[(8aR)-hexahydropyrrolo[1,2-a]pyrazin-2(1H)-ylcarbonyl]benzenesulfonamide] and `O=C(c1cccc(S(=O)(=O)NCCC(c2ccccc2)c2ccccc2)c1)N1CCN2CCC[C@H]2C1` [Example 30, N-(3,3-diphenylpropyl)-3-[(8aS)-hexahydropyrrolo[1,2-a]pyrazin-2(1H)-ylcarbonyl]benzenesulfonamide] are within 1.5-fold of each other in IC50: 2.1 µM for the first, 1.8 µM for the second.
